Reference: a melting point compilation (Tetko et al.; mined from patent text by program, amines drawn as free bases though some values may be those of a salt)

| Compound | melting point |
| --- | --- |
| CCCCCCC(C(=O)O)c1ccc(NC(=O)C2(O)c3ccccc3-c3ccccc32)cc1 (centres undefined) | 183 to 185 °C |
| CC(C)C(C)(N)C(N)=S (centres undefined) | 98 to 100 °C |
| CCOC(=O)c1cccc(NC(=O)C2=C(C)OCCS2)c1 | 100 to 102 °C |
| C#CC(=O)NCCCCC | 59 to 60.2 °C |
| O=C(O)CN1C(=O)COc2cc(F)ccc21 | 183 to 184 °C |
| CC(=O)Nc1ccc(OC(F)(F)F)cc1-c1ccccc1 | 94 °C |
| FC(F)(F)c1c[nH]c(-c2ccc(-c3nc(C(F)(F)F)c[nH]3)cc2)n1 | 325 °C |
| Cc1cc(C#N)c2c(c1C)C(=O)CC2 | 160 to 163 °C |
| CC(=O)CN1CCc2c(c(=O)oc3cc(C(C)C)ccc23)C1 | 76 to 79 °C |
| Clc1cc(Cl)cc(C2=NOCCS2)c1 | 88 to 89 °C |
| COc1ccc2[nH]c3c(c2c1)CC(=O)Nc1cccnc1-3 | > 330 °C |
| COc1cc(Cc2cnc(NCCSCc3nccs3)[nH]c2=O)ccn1 | 106 °C |
| O=C1O[C@@H](Cn2ccnn2)CN1c1ccc(-c2ccc(C3=NO[C@H](Cn4ccnc4)C3)nc2)c(F)c1 | 239 to 242 °C |
| Cc1nc(-n2cc(CCc3ccccc3)nn2)sc1C(=O)NCc1ccccc1 | 167 to 170 °C |
| O=C(O)c1cc2ccccc2n1Cc1cccc(Cl)c1 | 188 to 189 °C |
| O=[N+]([O-])c1ccc(OCCOc2ccccc2)cc1 | 86 to 87 °C |
| CC(C)(C)n1ncc(S)c(Br)c1=O | 107 to 110 °C |
| Cc1nc2ccc(CCc3ccccc3)cn2c1CC#N | 139 to 141 °C |
| CCc1nn(C2CCCC2)c2c1CCN(c1ccc(OC)cc1)C2=O | 64.7 °C |
| CNC(C)CN1CCc2c(c(=O)oc3cc(OC)ccc23)C1 (centres undefined) | 109 to 111 °C |
| O=C(O)c1cccc(-c2ccc(Cl)c3cc(Cc4cc(F)cc(Cl)c4)sc23)c1 | 110 to 114 °C |
| CC12CCC3=C(CCC(CCCC#N)O3)C1=CCC2=O (centres undefined) | 100 °C |
| COC(=O)c1ccc(C(=O)O)c(NC(=O)C(F)(F)F)c1 | 185 to 186 °C |
| C=CCNc1nc(NCC=C)nc(NCCC2CC(C)(C)NC(C)(C)C2)n1 | 74 to 75 °C |
| CCOC(=O)c1[nH]c2c(C)ccc(Cl)c2c1C | 118 to 119 °C |
| Cc1c(N)c2c(c3c1C(c1ccc(C(C)C)cc1)CO3)CCCC2 (centres undefined) | 106 to 107 °C |

| Compound | melting point |
| --- | --- |
| COc1ccc(C(CSc2ccccc2N)C(=O)O)cc1 (centres undefined) | 118 °C |
| CCCCOc1c(CO)n(CC(C)(C)C)c(=O)c2cc(F)ccc12 | 149 to 150 °C |
| CCOc1nc(C(F)(F)C(F)(F)F)cc(=O)n1-c1cc(O)c(Cl)cc1F | 117 to 120 °C |
| Cc1ccc(S(=O)(=O)N2[C@@H](CCc3nc(C)no3)CC[C@H]2c2ccc(F)cc2)cc1 (racemic) | 91 °C |
| COc1ccc(C2=NN(C3CCCC3)C(=O)[C@H]3CC=CC[C@@H]23)cc1OC1CCCC1 (relative stereo) | 144 to 145 °C |
| CC(CCN(C)c1ccccc1)NCC(O)c1ccc(O)c(C(N)=O)c1 (centres undefined) | 150 to 152 °C |
| O=C(O)c1ccc(-c2nccs2)nc1 | > 300 °C |
| CSCC[C@@H](NC(=O)OC(C)(C)C)C(=O)NCC(=O)O | 124 to 126 °C |
| COC(=O)c1cc2cc(OC)c(OCCCl)cc2[nH]1 | 164 to 166 °C |
| Cc1nnc2c3cccc(Br)c3ccn12 | 203 to 204 °C |
| N#CNC(=S)Nc1ccc(F)cc1 | > 270 °C |
| COc1ccc(CNc2nnc(-c3ccc(C(F)(F)F)cc3)cc2C(F)(F)F)cc1 | 101 to 103 °C |
| O=[N+]([O-])c1c(Br)nn(CCO)c1NCCO | 132 to 134 °C |
| Cc1cc(Cl)cc(OC2=NS(=O)(=O)CS2)c1 | 151 °C |
| Cc1cn(-c2ccc(Br)cc2C#N)cn1 | 166 °C |
| Clc1ccc(C(Cn2cncn2)OCc2ccccc2Cl)c(Cl)c1 (centres undefined) | 106 °C |
| COc1cc(COc2ccc3nc(NC(=O)OCC(O)CO)cn3n2)cc(OC)c1OC (centres undefined) | 175 to 176 °C |
| CC(C)(C)OC(=O)NN=Cc1cccc(C#N)c1 | 115 to 158 °C |
| CCCCNC(=O)OC1c2cc(C(F)(F)F)ccc2C(=O)N1c1ccc2ccc(Cl)nc2n1 (centres undefined) | 120 °C |
| C[C@@H]1CN(c2ccc([N+](=O)[O-])cc2C#N)C[C@H](C)N1 | 109 to 110 °C |
| CCn1cc(C(=O)O)c(=O)cc1-c1cccc(N)c1 | 145 to 146 °C |
| CCN1C(=O)C(C(=O)Nc2ccc(F)cc2)c2cc3c(cc21)C=CCO3 (centres undefined) | 212 to 214 °C |
| CC(CNc1ccc(C(=O)O)cc1)Oc1ccc(F)cc1 (centres undefined) | 171 to 172 °C |
| CCOC(=O)NC(=O)C1c2ccccc2Oc2ccc(Br)cc21 (racemic) | 203 °C |
| CCn1cc(C(=O)O)c(=O)c2cnc(N3CCN(CCO)CC3)nc21 | 222 °C |
| COc1ccc(-c2nc(Cn3ccnn3)co2)cc1 | 126 to 127 °C |

| Compound | melting point |
| --- | --- |
| Cc1sc2c(c1C(=O)c1ccccc1)CCC2C(=O)O (centres undefined) | 145 to 147 °C |
| C=C(C)COc1ccc(C(=O)C=Cc2ccccc2)c(O)c1 | 114 to 115 °C |
| CC(C)Nc1nc2ccccn2c(=O)c1Br | 101 to 104 °C |
| N#CC(C#N)=C(Cl)c1ccc(C(Cl)=C(C#N)C#N)cc1 | 177 to 179 °C |
| CCSc1cc(C)nc(SCC)c1NC(=O)CCCSc1nc2ccccc2o1 | 123 to 125 °C |
| CCCCC(O)c1cccc(NC(=O)OCc2ccccc2)c1 (centres undefined) | 83 to 86 °C |
| O=C1Oc2ccccc2Oc2ccccc21 | 62 to 66 °C |
| CC(C)(C)OC(=O)c1cccc(O)c1 | 94 to 96 °C |
| CON=Cc1nn(-c2c(Cl)cc(C(F)(F)F)cc2Cl)c(N)c1S(C)=O (centres undefined) | 80 °C |
| COc1cc(OC)c2c(C)cc(=O)[nH]c2c1 | 239 to 240 °C |
| CCC1(C)CC(NC(=O)c2ccccc2C(=O)O)C(C)C(C)(CC)N1 (centres undefined) | 196 to 197 °C |
| c1cc2cc[nH]c2cn1 | 132 to 134 °C |
| CN(C)C(=NCCN1CCC(C(=O)c2ccc(F)cc2)CC1)NC#N | 139 to 141 °C |
| CC(C)(C)OC(=O)Nc1ccc(-c2cccc(F)c2)cc1N | 125 to 128 °C |
| COc1cccc2c1nc(C(F)F)n2-c1nc(Nc2ccc(NS(C)(=O)=O)nc2)nc(N2CCOCC2)n1 | 302 to 306 °C |
| OCc1ccc2c(c1)ncn2-c1cccc(-c2ccccc2)c1 | 130 to 131 °C |
| Cc1nc2c(N)nc3ccc(OCc4ccccc4)cc3c2n1CCCCNC(=O)c1ccccc1 | 244 to 245 °C |
| CCS(=O)(=O)N[C@H](C(=O)NCCc1cc(Br)c(OCc2ccccc2)c(OC)c1)C(C)C | 128 to 130 °C |
| c1ccc(-c2nnc(-c3ccccc3)c3c2CCCCCC3)cc1 | 163 to 165 °C |
| CC(=O)c1c(NC(=O)C(C)(C)C)cccc1C(F)(F)F | 142 °C |
| Cc1ccccc1Nc1c([N+](=O)[O-])cnc2ccccc12 | 137 to 138 °C |
| CC(C)(C)OC(=O)COC1=CC(=NS(=O)(=O)c2cccs2)c2ccccc2C1=O | 153 to 155 °C |
| O=[N+]([O-])c1ccc(C=Cc2ccc(OCCCCCCO)cc2)cc1 | 118 °C |
| CCCOc1cccc(CCOc2ccc3c(c2)C=C(C(=O)Nc2ccc(CN(C)C4CCOCC4)cc2)CCS3(=O)=O)c1 | 153 to 154 °C |
| Cc1c(SCCCCSCCn2c([N+](=O)[O-])cnc2C)ccnc1CSc1nc2ccccc2[nH]1 | 160 to 162 °C |
| CCCC1=C(C#N)S(=O)(=O)c2ccc(C(F)(F)F)cc2N1 | 200 °C |

| Compound | melting point |
| --- | --- |
| CCCc1ccc(-c2nc(C)c(C(C)=NNC(=N)N)s2)cc1 | 256 to 257 °C |
| C=CC(=O)OC12Oc3cc(C(C)C)ccc3C1(O)C(=O)c1ccccc12 (centres undefined) | 95 to 97 °C |
| CCCCCCCCCCCC(=O)c1c[nH]c2ccccc12 | 129 to 130 °C |
| CC(C)(C)OC(=O)NCCn1cnc2c(N)nc3ccccc3c21 | 215 °C |
| COC(=O)[C@H]1CC[C@@H](c2c(-c3ccccc3)n(C)c3ccccc32)CC1 | 141 to 142 °C |
| CN(CCC(Oc1ccc(C(=O)c2ccc3ccccc3c2)cc1)c1ccccc1)CC(=O)O (centres undefined) | 77 to 89 °C |
| CC(=O)Oc1ccc(-n2c(-c3ccccc3)cc3c2CCc2ccccc2-3)cc1C(=O)O | 194 to 196 °C |
| COc1ccc(CC(=O)Nc2c(C)c(C)c3c(c2C)[C@@H](c2ccc(C)cc2)C(C)(C)O3)cc1 | 166 to 167 °C |
| Fc1ccccc1[C@]1(Cn2nc[nH]c2=S)O[C@H]1c1ccccc1Cl (racemic) | 179 °C |
| Cn1c(C(F)(F)F)cc(=O)n(-c2cc(N(S(C)(=O)=O)S(C)(=O)=O)c(Cl)cc2F)c1=O | 282 to 285 °C |
| CCCCCn1cc(C(=O)O)c(=O)c(I)c1C | 154 °C |
| COCc1nc2c(OC)ccc(C(O)(Cc3ccncc3)Cc3ccncc3)c2[nH]1 | 210 °C |
| CCC(=O)Nc1ccc(OCc2nc(Cl)ccc2Cl)cc1 | 169 to 171 °C |
| CN(CC(O)(CO)c1ccccc1)S(=O)(=O)c1ccc(Cl)cc1 (centres undefined) | 122 to 123 °C |
| CCOC(=O)/C(=N\OCc1ccccc1)c1csc(N)n1 | 133 to 134 °C |
| Cc1cc2cc(CN3CCCCCC3)cnc2cc1NC(=O)c1ccc(-c2ccc(Cl)s2)cc1 | 180 °C |
| O=C(O)COc1ccc(-c2c3ccccc3cc3sc4ccccc4c23)cc1 | 221 to 223 °C |
| COc1c(C)cnc(C#N)c1C | 59 to 61 °C |
| CCNC(=O)Nc1nc2cc(-c3c(C)noc3C)cc(C(=O)NCC)n2n1 | 238 to 241 °C |
| CNC(=O)Cc1ccc(CC(=O)O)cc1 | 102 to 104 °C |
| CC(=O)OCc1cc(=O)c(Oc2ccc(F)cc2F)c(-c2ccc(S(C)(=O)=O)cc2)o1 | 175 °C |
| CCc1nc2c(C(F)(F)F)cccc2c(O)c1C(=O)O | 174 °C |
| Fc1cccc2c(NCCc3ccc4ccccc4c3)ccnc12 | 173 to 174 °C |
| Cn1cc(-c2ccc(Cl)cc2)c(=O)c(-c2cccc(Cl)c2)c1 | 170 to 172 °C |
| C[C@@H]1c2onc(-c3ccc(Cl)cc3)c2CC[C@H]1C(=O)O (relative stereo) | 183 to 186 °C |
| CC(C)(C)OC(=O)NC1CCC(C(=O)N2CCC(c3[nH]nc4c3C(=O)c3c(NC(=O)NN5CCOCC5)cccc3-4)CC2)CC1 (centres undefined) | 178 to 180 °C |
